Experimental data reported in patent US20220089655A1, “NOVEL POLYPEPTIDE-MODIFYING ENZYMES AND USES THEREOF” (ETH ZURICH, priority 2018, published 2022).
Starred links: 1 amine or outer side, 2 acyl side, 3 side chain; linkers in the order of their positions; H or OH if unused. Non-standard residues stand in square brackets, D forms with d. No end group written: not given here. *: point of attachment. X1 = CC(C)C(C)[C@H](N[*:1])C(=O)[*:2]; Ile(3-Me) = CCC(C)(C)[C@H](N)C(=O)O; d(aThr) = C[C@@H](O)[C@@H](N)C(=O)O; Butanoyl(2-oxo) = CCC(=O)C(=O)*; Tle = CC(C)(C)[C@H](N)C(=O)O

Columns and labels:
[1] = Cytotoxic assay (MTT) against HeLa cells; format: cell-based; conditions: 3 days incubation, MTT readout
Procedure: The activity of aeronamide A was measured against HeLa cells. Stocked HeLa cells were resuspended in 10 mL HEPES buffered high glucose Dulbecco's Modified Eagle Medium (DMEM) supplemented with GlutaMAX (Gibco). Additionally, the medium contained 10% fetal calf serum (FCS) and […] gentamycin. The cells were centrifuged for 5 min at 1000×g and room temperature. The medium was discarded and the cells resuspended in 10 mL fresh medium. The cells were put in a culture dish and incubated for 3-4 days at 37° C. The cells were checked under the microscope and treated further only when 60-80% of the surface was covered with cells. The medium was removed from the culture flask and the cells were washed with 10 mL phosphate buffered saline (PBS). The PBS was discarded and the cells treated with 2 mL Trypsin-EDTA solution. When the cells were detached, 10 mL of medium was added and centrifuged for 5 min at 1000×g and room temperature. The supernatant was discarded and 10 mL fresh medium were added. 2 mL of the cell suspension were put in a fresh culture flask containing 10 mL medium. Cells healthy enough for cytotoxicity assays were counted and diluted to a 10,000 cells/mL solution. 96 well plates were filled with 200 μL cell suspension per well. All plates were incubated overnight at 37° C. […] Absorbance was measured at 570 nm and IC50 was calculated using GraphPad Prism 6 (GraphPad).

[2] = system: bacteria; test: Activity towards bacteria
[3] = system: fungi; test: Activity towards fungi

Substance: {Butanoyl(2-oxo)}-[Ile(3-Me)][dA][Tle][dV][X1][dV]A[dV][Tle]GA[dA]A[dA]A[dV][Tle][d(aThr)]Y[dL]G[dA]A[dD](NHMe)[Tle][dV]G[dA]A[dD](NHMe)G[d(aThr)][Tle][d(aThr)]A[dD](NHMe)A[dV]A[dD](NHMe)T[dD](NHMe)A[dV]A [Aeronamide A]
- IC50 [1]: 1.48 nM
- cytotoxic activity towards bacteria [2]: not towards the bacteria and fungi
- cytotoxic activity towards fungi [3]: not towards the bacteria and fungi
